For this assay, the target named is recombinant IL4I1 (Homo sapiens (Human), UniProt Q96RQ9). As to the kind of experiment: IL4I1 Enzymatic Assay (Amplex Red/HRP coupled fluorescence detection of H2O2). It counts as biochemical. The note with it: 240 min; recombinant IL4I1, four-hour pre-incubation with compound. How it is done: Interleukin 4 inducible protein 1 (IL4I1) is an L-amino oxidase that catalyzes the oxidation of aromatic residues (Phe, Trp and Tyr): L-amino acid+H2O+O2→2-oxo acid+NH3+H2O2. Equal molar of H2O2 and the corresponding alpha-ketoacid are produced when IL4I1 and substrate are added. In this assay, the hydrogen peroxide generated by IL4I1 is then detected through a coupled reaction with Amplex® Red (10-acetyl-3,7-dihydroxyphenoxazine) and horseradish peroxidase (HRP) to produce resorufin product that could be detected in the form of fluorescence signals. The assessment of the inhibitory effect of small molecules (EC50) on IL4I1 is measured by the effectiveness of the compounds to inhibit the production of H2O2.
Chain of recombinant IL4I1 (Q96RQ9 22-567): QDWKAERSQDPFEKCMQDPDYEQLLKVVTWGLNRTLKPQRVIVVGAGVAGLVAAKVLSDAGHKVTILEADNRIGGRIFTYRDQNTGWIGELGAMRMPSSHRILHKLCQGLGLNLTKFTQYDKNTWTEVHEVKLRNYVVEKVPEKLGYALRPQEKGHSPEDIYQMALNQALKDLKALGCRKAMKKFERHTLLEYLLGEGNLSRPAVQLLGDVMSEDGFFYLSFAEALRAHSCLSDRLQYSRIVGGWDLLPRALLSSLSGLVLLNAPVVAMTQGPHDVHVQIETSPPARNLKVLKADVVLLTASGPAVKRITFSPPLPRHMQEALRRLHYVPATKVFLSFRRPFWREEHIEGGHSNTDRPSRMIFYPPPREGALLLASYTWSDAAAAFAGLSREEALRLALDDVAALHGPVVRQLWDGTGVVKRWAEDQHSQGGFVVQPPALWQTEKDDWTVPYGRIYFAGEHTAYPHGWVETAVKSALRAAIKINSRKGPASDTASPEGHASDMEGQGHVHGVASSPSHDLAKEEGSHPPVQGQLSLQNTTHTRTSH
Using this assay, the potency (EC50) of each compound was determined from a ten-point (1:3 serial dilution) titration curve using the following outlined procedure. To each well of a black flat-bottom Greiner (Cat #781076) 384 well-plate, 25 nL of compound (0.1% DMSO in final assay volume of 25 μL) was dispensed, followed by the addition of 12.5 μL of 1× assay buffer (50 mM Hepes 7.0 and 0.005% Tween20 (Sigma, Cat #P8341; low peroxide grade)) containing 2 nM of recombinant IL4I1 (R&D Systems, Cat #5684-AO-020). Plates were placed in an ambient temperature humidified chamber for a four-hour pre-incubation with compound. Subsequently, each reaction was initiated by the addition of 12.5 μL 1× assay buffer containing 2 mM of each aromatic amino acids (Phe/Tyr/Trp), 0.1 mM Amplex Red and 2 U/mL of HRP. The final reaction in each well of 25 μL consisted of 1 nM of IL4I1, 1 mM of each residues (Phe, Tyr and Trp), 0.05 mM Amplex Red and 1 U/mL of HRP. It should be noted that the concentrations of Amplex Red and HRP used here were in excess such that the conversion of H2O2 to resorufin product occurred instantaneously and was non-rate limiting. Reactions were allowed to proceed for 120 minutes followed by fluorescence readout on a Spectramax with the following set parameters: 544 nm excitation/590 nm emission, 570 nm cutoff (EnVision is an alternative reader). Dose-response curves were generated by plotting percent effect (% product conversion; Y-axis) vs. Log10 compound concentrations (X-axis). EC50 values were calculated using a non-linear regression, four-parameters sigmoidal dose-response model and are shown in Potency Table 1.
As usually defined, the EC50 is the concentration that produces a half-maximal response. In the case of `O=c1c(=O)n([C@H]2C[C@@H](c3ccccc3)C2)ccn1Cc1nnc(-c2ccccc2)s1` [Example 48, 1-((5-phenyl-1,3,4-thiadiazol-2-yl)methyl)-4-((cis)-3-phenylcyclobutyl)-1,4-dihydropyrazine-2,3-dione], the concentration giving a half-maximal response (EC50) is 2 nM.

`O=c1c(=O)n(C2CCC2)ccn1Cc1ccc(-c2ccccc2F)nn1` [Example 49, 1-cyclobutyl-4-((6-(2-fluorophenyl)pyridazin-3-yl)methyl)-1,4-dihydropyrazine-2,3-dione]: the concentration giving a half-maximal response (EC50) is 3 nM.

Consider `O=c1c(=O)n([C@H]2C[C@H]3C[C@H]3C2)ccn1Cc1ccc(-c2ccccc2F)nn1` [Example 50, 1-((cis)-bicyclo[3.1.0]hexan-3-yl)-4-((6-(2-fluorophenyl)pyridazin-3-yl)methyl)-1,4-dihydropyrazine-2,3-dione], for which the concentration for a half-maximal effect (EC50) was 4 nM.

For the compound `O=C1C(=O)N([C@H]2C[C@H]3C[C@H]3C2)CCN1Cc1ccc(-c2ccccc2F)nn1` [Example 51, 1-((1R,3r,5S)-bicyclo[3.1.0]hexan-3-yl)-4-((6-(2-fluorophenyl)pyridazin-3-yl)methyl)piperazine-2,3-dione], the EC50 stood at 8 nM.

In the case of `O=c1c(=O)n(C2CCCC2)ccn1Cc1ccc(-c2ccccc2)nn1` [Example 52, 1-cyclopentyl-4-((6-phenylpyridazin-3-yl)methyl)-1,4-dihydropyrazine-2,3-dione], the half-maximal effective concentration (EC50) amounted to 4 nM.

As for `O=c1c(=O)n(C2CCCC2)ccn1Cc1ccc(-c2ccccc2F)nn1` [Example 53, 1-cyclopentyl-4-((6-(2-fluorophenyl)pyridazin-3-yl)methyl)-1,4-dihydropyrazine-2,3-dione], the EC50 was determined as 7 nM.

In the case of `O=c1c(=O)n(C2CCC2)ccn1Cc1cc(-c2cccc(F)c2)on1` [Example 54, 1-cyclobutyl-4-((5-(3-fluorophenyl)isoxazol-3-yl)methyl)-1,4-dihydropyrazine-2,3-dione], the EC50 stood at 2 nM.

With `O=c1c(=O)n(C2CCC2)ccn1Cc1cc(-c2ccc(F)cc2)on1` [Example 55, 1-cyclobutyl-4-((5-(4-fluorophenyl)isoxazol-3-yl)methyl)-1,4-dihydropyrazine-2,3-dione], the half-maximal effective concentration (EC50) came to 1 nM.

In the case of `O=c1c(=O)n(C2CCC2)ccn1Cc1cc(-c2ccccc2)on1` [Example 56, 1-cyclobutyl-4-((5-phenylisoxazol-3-yl)methyl)-1,4-dihydropyrazine-2,3-dione], the 50% effective concentration (EC50) was determined as 1 nM.

With `O=c1c(=O)n(C2CCC2)ccn1Cc1cc(-c2ccccc2F)on1` [Example 57, 1-cyclobutyl-4-((5-(2-fluorophenyl)isoxazol-3-yl)methyl)-1,4-dihydropyrazine-2,3-dione], the 50% effective concentration (EC50) was 3 nM.

Take `O=c1c(=O)n([C@H]2C[C@H]3C[C@H]3C2)ccn1Cc1ccc(-c2ccccc2)nn1` [Example 58, 1-((cis)-bicyclo[3.1.0]hexan-3-yl)-4-((6-phenylpyridazin-3-yl)methyl)-1,4-dihydropyrazine-2,3-dione]: the concentration for a half-maximal effect (EC50) came out at 4 nM.

Take `O=c1c(=O)n(C2CCCC2)ccn1Cc1ccc(-c2cccc(F)c2)nn1` [Example 59, 1-cyclopentyl-4-((6-(3-fluorophenyl)pyridazin-3-yl)methyl)-1,4-dihydropyrazine-2,3-dione]: the EC50 was determined as 5 nM.

Take `O=C1C(=O)N(C2CCCC2)CCN1Cc1cc(-c2ccccc2F)on1` [Example 60, 1-cyclopentyl-4-((5-(2-fluorophenyl)isoxazol-3-yl)methyl)piperazine-2,3-dione]: the concentration giving a half-maximal response (EC50) is 10 nM.

In the case of `O=c1c(=O)n(C2CCCC2)ccn1Cc1cc(-c2ccccc2F)on1` [Example 61, 1-cyclopentyl-4-((5-(2-fluorophenyl)isoxazol-3-yl)methyl)-1,4-dihydropyrazine-2,3-dione], the EC50 is 5 nM.

Take `O=C1C(=O)N([C@H]2C[C@H]3C[C@H]3C2)CCN1Cc1ccc(-c2ccccc2F)nn1` [Example 62, 1-((cis)-bicyclo[3.1.0]hexan-3-yl)-4-((6-(2-fluorophenyl)pyridazin-3-yl)methyl)piperazine-2,3-dione]: the 50% effective concentration (EC50) was found to be 4 nM.

Take `O=c1c(=O)n(C2CCC2)ccn1Cc1ccc(-c2cccc(F)c2)nn1` [Example 63, 1-cyclobutyl-4-((6-(3-fluorophenyl)pyridazin-3-yl)methyl)-1,4-dihydropyrazine-2,3-dione]: the 50% effective concentration (EC50) was 3 nM.

For the compound `O=c1c(=O)n(C23CC(C2)C3)ccn1Cc1ccc(-c2cccc(F)c2)nn1` [Example 64, 1-(bicyclo[1.1.1]pentan-1-yl)-4-((6-(3-fluorophenyl)pyridazin-3-yl)methyl)-1,4-dihydropyrazine-2,3-dione], the 50% effective concentration (EC50) was determined as 4 nM.

As to `O=C1C(=O)N(C23CC(C2)C3)CCN1Cc1ccc(-c2cccc(F)c2)nn1` [Example 65, 1-(bicyclo[1.1.1]pentan-1-yl)-4-((6-(3-fluorophenyl)pyridazin-3-yl)methyl)piperazine-2,3-dione], the 50% effective concentration (EC50) came to 4 nM.

Regarding `O=C1C(=O)N(C23CC(C2)C3)CCN1Cc1ccc(-c2ccccc2F)nn1` [Example 66, 1-(bicyclo[1.1.1]pentan-1-yl)-4-((6-(2-fluorophenyl)pyridazin-3-yl)methyl)piperazine-2,3-dione], the half-maximal effective concentration (EC50) worked out at 7 nM.

Take `O=c1c(=O)n([C@H]2C[C@H]3C[C@H]3C2)ccn1Cc1cc(-c2cccc(F)c2)on1` [Example 67, 1-((cis)-bicyclo[3.1.0]hexan-3-yl)-4-((5-(3-fluorophenyl)isoxazol-3-yl)methyl)-1,4-dihydropyrazine-2,3-dione]: the half-maximal effective concentration (EC50) was found to be 1 nM.

For the compound `O=c1c(=O)n(C23CC(C2)C3)ccn1Cc1nnc(-c2ccccc2F)s1` [Example 68, 1-(bicyclo[1.1.1]pentan-1-yl)-4-((5-(2-fluorophenyl)-1,3,4-thiadiazol-2-yl)methyl)-1,4-dihydropyrazine-2,3-dione], the EC50 amounted to 5 nM.

With `O=C1C(=O)N(C2CCC2)CCN1Cc1ncc(-c2ccccc2)s1` [Example 69, 1-cyclobutyl-4-((5-phenylthiazol-2-yl)methyl)piperazine-2,3-dione], the EC50 is 3 nM.

For the compound `O=C1C(=O)N(C2CCC2)CCN1Cc1cnc(-c2ccccc2)s1` [Example 70, 1-cyclobutyl-4-((2-phenylthiazol-5-yl)methyl)piperazine-2,3-dione], the EC50 was 4 nM.

Take `O=c1c(=O)n(C2CCC2)ccn1Cc1ccc(-c2cccc(F)c2F)nn1` [Example 71, 1-cyclobutyl-4-((6-(2,3-difluorophenyl)pyridazin-3-yl)methyl)-1,4-dihydropyrazine-2,3-dione]: the EC50 amounted to 6 nM.

As to `O=c1c(=O)n(C2CCC2)ccn1Cc1ccc(-c2ccccc2F)nc1` [Example 72, 1-cyclobutyl-4-((6-(2-fluorophenyl)pyridin-3-yl)methyl)-1,4-dihydropyrazine-2,3-dione], the concentration for a half-maximal effect (EC50) amounted to 2 nM.

In the case of `O=C1C(=O)N(C2CCC2)CCN1Cc1cnc(-c2ccccc2F)cn1` [Example 73, 1-cyclobutyl-4-((5-(2-fluorophenyl)pyrazin-2-yl)methyl)piperazine-2,3-dione], the EC50 was 9 nM.

As for `O=c1c(=O)n(C2CCC2)ccn1Cc1cnc(-c2ccccc2F)cn1` [Example 74, 1-cyclobutyl-4-((5-(2-fluorophenyl)pyrazin-2-yl)methyl)-1,4-dihydropyrazine-2,3-dione], the half-maximal effective concentration (EC50) is 5 nM.

For `O=c1c(=O)n(C23CC(C2)C3)ccn1Cc1cnc(-c2ccccc2F)cn1` [Example 75, 1-(bicyclo[1.1.1]pentan-1-yl)-4-((5-(2-fluorophenyl)pyrazin-2-yl)methyl)-1,4-dihydropyrazine-2,3-dione], the half-maximal effective concentration (EC50) is 7 nM.

For the compound `O=C1C(=O)N(C23CC(C2)C3)CCN1Cc1cc(-c2cccc(F)c2)on1` [Example 76, 1-(bicyclo[1.1.1]pentan-1-yl)-4-((5-(3-fluorophenyl)isoxazol-3-yl)methyl)piperazine-2,3-dione], the EC50 amounted to 4 nM.

Regarding `O=c1c(=O)n(C23CC(C2)C3)ccn1Cc1cc(-c2ccccc2F)on1` [Example 77, 1-(bicyclo[1.1.1]pentan-1-yl)-4-((5-(2-fluorophenyl)isoxazol-3-yl)methyl)-1,4-dihydropyrazine-2,3-dione], the half-maximal effective concentration (EC50) came out at 3 nM.

Turning to `O=C1C(=O)N(C2CCC2)CCN1Cc1cnc(-c2ccccc2F)s1` [Example 78, 1-cyclobutyl-4-((2-(2-fluorophenyl)thiazol-5-yl)methyl)piperazine-2,3-dione], the EC50 came out at 6 nM.

In the case of `O=C1C(=O)N(C2CCC2)CCN1Cc1cnc(-c2cccc(F)c2)s1` [Example 79, 1-cyclobutyl-4-((2-(3-fluorophenyl)thiazol-5-yl)methyl)piperazine-2,3-dione], the EC50 is 5 nM.

For the origin of these results see patent US20240246937A1 (MERCK SHARP & DOHME LLC, priority 2021, published 2024).
